Molecular target: T1, human zDHHC2 (Homo sapiens, UniProt Q9UIJ5)
T1 construct: expressed in transfected cells; host or cells: HEK293T
T1 sequence (Q9UIJ5 1-367): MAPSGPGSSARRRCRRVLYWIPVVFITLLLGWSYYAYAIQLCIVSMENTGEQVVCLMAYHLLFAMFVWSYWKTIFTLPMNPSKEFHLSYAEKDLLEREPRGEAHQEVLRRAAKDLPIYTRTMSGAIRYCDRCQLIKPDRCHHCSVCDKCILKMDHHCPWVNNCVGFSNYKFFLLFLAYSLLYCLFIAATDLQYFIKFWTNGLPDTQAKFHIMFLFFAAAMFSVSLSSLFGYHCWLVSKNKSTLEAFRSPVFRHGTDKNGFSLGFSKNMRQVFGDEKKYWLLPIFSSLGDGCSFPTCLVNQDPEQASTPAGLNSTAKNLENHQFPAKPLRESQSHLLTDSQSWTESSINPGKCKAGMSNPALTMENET
Experiment: S-acylation (autoacylation) of HA-zDHHC2 in HEK293T cells, click chemistry
Assay type: cell-based
Details: resynthesized UoS compounds, 25 μM, p < 0.001 vs DMSO
Experimental: Figure 8 Activity of TTZ-1 (UoS) and TTZ-2 (UoS) against human zDHHC2 autoacylation expressed in mammalian cells. HEK293T cells were transfected with either the control plasmid pEF-BOS-HA (pEF) or a plasmid encoding HA-tagged human zDHHC2 (zD2) for 24 h. Cells were then preincubated for 4 h with UoS compounds TTZ-1 (UoS) (A) or TTZ-2 (UoS) (B) (25 μM final) or DMSO control before metabolic labeling with 100 μM C16:0-azide for 4 h. Cells were lysed, and proteins having incorporated C16:0-azide were labeled by click chemistry with an alkyne-IR800 dye. Protein samples were then resolved by SDS-PAGE, and the gel was scanned for the detection of the click chemistry signal in the infrared-800 channel. […] Two independent experiments were performed in sextuplicate, and the quantification data were gathered on the graphs below each set of membranes. […]
HEK293T cells were plated on poly-D-lysine–coated 24-well plates (catalog no.: 356413; Corning BioCoat, VWR) and transfected with 2.4 μg of pEF-zDHHC2 plasmid (or the control empty plasmid pEF-BOS-HA) for the measurement of zDHHC2 autoacylation and 4.8 μl of Lipofectamine 2000 (Invitrogen). […] Membranes were first stained with Revert 700 total protein stain kit (catalog no.: 926-11016; LI-COR), imaged, destained, and then analyzed by immunoblotting. Signals were quantified with ImageStudio software (LI-COR). […]

SMILES	S-acylation of HA-zDHHC2 in HEK293T cells
O=C(Nc1cccc2c1OC(c1nnn[nH]1)CN2)c1ccc(OCCCCc2ccccc2)cc1 (centres unmarked) [TTZ-2, N-(2-(1H-Tetrazol-5-yl)-3,4-dihydro-2H-benzo[b][1,4]oxazin-8-yl)-4-(4-phenylbutoxy)benzamide]	significantly reduced
CCCCCCCOc1ccc(C(=O)Nc2cccc3c2OC(c2nnn[nH]2)CN3)cc1 (centres unmarked) [TTZ-1, N-(2-(1H-Tetrazol-5-yl)-3,4-dihydro-2H-benzo[b][1,4]oxazin-8-yl)-4-(heptyloxy)benzamide]	significantly reduced

Source: publication PMC9558053, “Development of a novel high-throughput screen for the identification of new inhibitors of protein S-acylation” (The Journal of Biological Chemistry, 2022)
